From US4978332A, “Treatments employing vasoconstrictive substances in combination with cytotoxic agents for introduction into cellular lesion areas” (priority 1987, dated 1990)
Counter-ions that a name gives are not always drawn. Like-named read-outs stand apart in the source and are kept apart here.

How the values were obtained:
[1] = test system: RIF-1 murine fibrosarcoma
Protocol: The transplantable experimental murine fibrosarcomas RIF-1 or KHT were grown intradermally (2×10^5 cells injected i.d.) in the flank of 5 month old male C3H mice. When tumors reached a volume of ~100 mm^3 they were used for the studies. […] Drug concentrations were: adriamycin, 3.75 mg/ml: BCNU, 10 mg/ml: vinblastine, 1.2 mg/ml; and 5-fluorouracil, 30 mg/ml. The drugs were administered intraperitoneally (i.p.) or intratumorally (i.t.) in an injection volume of 0.1 ml. The tumors of the treated mice as well as untreated control tumors were measured three times per week by vernier calipers and their volumes were calculated by the formula:
*This ratio indicated the time it would take a treated tumor to grow to
4× its initial size, divided by the time it would take an untreated
tumor to grow to 4× its initial size.

KHT murine fibrosarcoma = experiment: Tumor growth ratio (time to grow to 4x initial volume, treated/untreated), KHT fibrosarcoma in C3H mice; assay type: in vivo, mouse (C3H)
Protocol: (§1) The transplantable experimental murine fibrosarcomas RIF-1 or KHT were grown intradermally (2×10^5 cells injected i.d.) in the flank of 5 month old male C3H mice. When tumors reached a volume of ~100 mm^3 they were used for the studies. The cytotoxic drugs under study (all were formulated for human clinical use) were made up just prior to use in their appropriate aqueous vehicle except those experimental groups in which epinephrine-HCl (1 mg/ml) was added to the aqueous drug (usually ~10% of total volume). Drug concentrations were: adriamycin, 3.75 mg/ml: BCNU, 10 mg/ml: vinblastine, 1.2 mg/ml; and 5-fluorouracil, 30 mg/ml. The drugs were administered intraperitoneally (i.p.) or intratumorally (i.t.) in an injection volume of 0.1 ml. The tumors of the treated mice as well as untreated control tumors were measured three times per week by vernier calipers and their volumes were calculated by the formula: […]
(§2) where D1 -D3 are tumor diameters in mm. The time (days) for the tumors to grow to four times their original experimental volume was used as a parameter of treatment effectiveness.

[2] = test system: murine fibrosarcomas RIF-1 or KHT; details: epinephrine 1 mg/kg alone
Protocol: as §1, §2

[3] = 2 mg/kg BW i.t., Epi 1 mg/kg where combined

For CC[C@]1(O)C[C@@H]2CN(CCc3c([nH]c4ccccc34)[C@@](C(=O)OC)(c3cc4c(cc3OC)N(C)[C@H]3[C@@](O)(C(=O)OC)[C@H](OC(C)=O)[C@]5(CC)C=CCN6CC[C@]43[C@@H]65)C2)C1 [Vinblastine, vinblastine sulfate], the “Tumor Growth Ratio” value ([1]; 2 mg/kg BW i.p.) was 1.12, the “Tumor Growth Ratio” value [1, 3] was 3.01 and the “Tumor Growth Ratio” value (KHT murine fibrosarcoma; 2 mg/kg BW i.p.) was 1.16. The “Tumor Growth Ratio” value (KHT murine fibrosarcoma; [3]) was 1.76.

For CNC[C@H](O)c1ccc(O)c(O)c1 [Epinephrine, epinephrine], the “chemotherapeutic effect when used alone” value [2] was “not chemotherapeutic when used alone”.

For O=c1[nH]cc(F)c(=O)[nH]1 [5-Fluorouracil, 5-fluorouracil], the “Tumor Growth Ratio” value ([1]; 100 mg/kg BW i.p.) was 1.20 and the “Tumor Growth Ratio” value ([1]; 100 mg/kg BW i.t., Epi 1 mg/kg where combined) was 1.30.

In the case of COc1cccc2c1C(=O)c1c(O)c3c(c(O)c1C2=O)C[C@@](O)(C(=O)CO)C[C@@H]3O[C@H]1C[C@H](N)[C@H](O)[C@H](C)O1 [Adriamycin, doxorubicin hydrochloride], the “Tumor Growth Ratio” value ([1]; 15 mg/kg BW i.p.) is reported as 1.63 and the “Tumor Growth Ratio” value ([1]; 15 mg/kg BW i.t., Epi 1 mg/kg where combined) is reported as 3.04.

O=NN(CCCl)C(=O)NCCCl [BCNU (carmustine), carmustine] was tested, and the “Tumor Growth Ratio” value (KHT murine fibrosarcoma; 40 mg/kg BW i.t., Epi 1 mg/kg where combined) was 2.08.
